These results are taken from the NIST ThermoML archive (doi:10.1021/acs.jced.5b00192).

The conditions of data set [1]: DTA.
Data set [2] can be described thus: Molar enthalpy of transition or fusion. As to conditions: DSC.

Molecules are shown by their SMILES. ± gives the expanded uncertainty stated by the source.

For the compound `O=C1c2cccc(O)c2C(=O)c2c(O)cccc21` [1,8-dihydroxyanthraquinone], the Normal melting temperature in data set [1] (Crystal 1) stood at 195.38 ± 1.5 °C. For the same compound, in data set [1] (Crystal 2), the Triple point temperature is on record as 435.39 ± 0.86 K. The “Molar enthalpy of transition or fusion” value in data set [2] (Crystal 1) came out at 4.79 ± 0.179 kcal/mol; in data set [2] (Crystal 2) it was 1.19 ± 0.0454 kcal/mol.
